# In patent US9510598B2, “Nitrogen-containing heterocyclic compounds for plant disease control” (BAYER CROPSCIENCE AG, priority 2012, dated 2016):
# Several values for one entry are separate records, joined by “and”; a condition that tells them apart may be missing. Equal entries are not always repeated. Where two headings read alike, the source gives them in different places.
# Assays:
# Botrytis cinerea = test: In vivo preventive test on Botrytis cinerea (grey mould); settings: 500 ppm; gherkin plants sprayed 24 hours before contamination; grading 4-5 days after contamination vs control plants
# In short: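 Gherkin plants ("Vert petit de Paris") sprayed with compound at Z11 cotyledon stage, then inoculated 24 h later with B. cinerea spores (50 000/ml) in PDB/fructose/NH4NO3/KH2PO4 nutrient solution. Incubated at 17 °C, 80% RH; % efficacy versus solvent-treated controls graded 4–5 days after contamination.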
# Phytophthora infestans = assay type: in vivo; settings: 500 ppm; tomato plants sprayed 24 hours before contamination; grading 5 days after contamination vs control plants
# [1] = assay type: physicochemical
# Septoria tritici = test: In vivo preventive test on Septoria tritici (leaf spot on wheat); settings: 500 ppm; wheat plants sprayed 24 hours before contamination; grading 21 to 28 days after contamination vs control plants
# In short: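 Scipion wheat at 1-leaf stage sprayed with compound, controls receiving acetone/tween/DMSO/water vehicle; 24 h later leaves inoculated with Septoria tritici spores (500 000 spores per ml). Efficacy (%) graded versus control plants 21 to 28 days after contamination.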
# Sphaerotheca fuliginea = test: In vivo preventive test on Sphaerotheca fuliginea (powdery mildew on cucurbits); settings: 500 ppm; gherkin plants sprayed 24 hours before contamination; grading 12 days after contamination vs control plants
# In short: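 Preventive spray of gherkin plants at Z11 cotyledon stage, grown at 24° C; inoculation 24 hours later with Sphaerotheca fuliginea spores (100 000 spores per ml). Efficacy graded 12 days post-inoculation as % versus solvent-treated control plants.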
# [2] = method [a]: pH 2.7, 0.1% formic acid in water / acetonitrile gradient
# Experimental: Measurement of log P values was performed according EEC directive 79/831 Annex V.A8 by HPLC (High Performance Liquid Chromatography) on reversed phase columns with the following methods: ^[a]
# [3] = HPLC on reversed phase columns, method [a]: pH 2.7, 0.1% formic acid in water / acetonitrile, linear gradient 10% to 95% acetonitrile
# [4] = method [a]: HPLC/LC-MS on reversed phase at pH 2.7, 0.1% formic acid in water / acetonitrile, gradient 10% to 95% acetonitrile
# [5] = HPLC on reversed phase columns, method [a]: pH 2.7, 0.1% formic acid in water and acetonitrile, linear gradient 10% to 95% acetonitrile
# [6] = method [a]: HPLC/LC-MS on reversed phase at pH 2.7, 0.1% formic acid in water / acetonitrile, linear gradient 10% to 95% acetonitrile
structure (smiles),measurement,setting,value
CON=CC(C)(C)NC(=O)C1(C)CC(c2ccc3ncc(Br)cc3c2)=NO1 (stereo not shown) [compound 298],% of efficacy (protection),Botrytis cinerea,87%
same,% of efficacy (protection),Phytophthora infestans,100%
same,log P,[1]; [3],3.29[a]
same,% of efficacy (protection),Septoria tritici,100%
C#Cc1cnc2ccc(C3=NOC(C)(C(=O)NC(C)COC)C3)cc2c1 (racemic) [compound 365],% of efficacy (protection),Sphaerotheca fuliginea,98%
same,% of efficacy (protection),Phytophthora infestans,79%
same,log P,[1]; [4],2.26[a]
same,% of efficacy (protection),Septoria tritici,100%
C=CC1(C(=O)NCc2cn(CC)nc2C)CC(c2ccc3ncc(I)cc3c2)=NO1 (stereo not shown) [compound 728],% of efficacy (protection),Botrytis cinerea,97%
same,% of efficacy (protection),Sphaerotheca fuliginea,100%
same,% of efficacy (protection),Phytophthora infestans,100%
same,log P,[1]; [5],2.75[a]
C#Cc1cnc2ccc(C3=NOC(C)(C(=O)NC(C)c4cn(CC)nc4C)C3)cc2c1 (stereo not shown) [compound 351],% of efficacy (protection),Sphaerotheca fuliginea,98%
same,% of efficacy (protection),Phytophthora infestans,100%
same,log P,[1]; [3],2.28[a]
same,% of efficacy (protection),Septoria tritici,100%
C#Cc1cnc2ccc(C3=NOC(C)(C(=O)NCc4c(C)nn(C(C)C)c4C)C3)cc2c1 (stereo not shown) [compound 196],% of efficacy (protection),Phytophthora infestans,94%
same,log P,[1]; [6],2.32^[a]
CCn1cc(CNC(=O)C2(C)CC(c3ccc4ncc(Br)cc4c3)=NO2)cn1 (stereo not shown) [compound 182],% of efficacy (protection),Botrytis cinerea,99%
same,% of efficacy (protection),Sphaerotheca fuliginea,98%
same,% of efficacy (protection),Phytophthora infestans,83%
same,log P,[1]; [6],2.27^[a]
C#Cc1cnc2ccc(C3=NOC(C)(C(=O)NCc4ccnc(N5CCOCC5)c4)C3)cc2c1 (stereo not shown) [compound 194],% of efficacy (protection),Phytophthora infestans,94%
same,log P,[1]; [6],1.36^[a]
CCCn1cc(CNC(=O)C2(C)CC(c3ccc4ncc(I)cc4c3)=NO2)c(C)n1 (stereo not shown) [compound 455],% of efficacy (protection),Botrytis cinerea,98%
same,% of efficacy (protection),Sphaerotheca fuliginea,98%
same,% of efficacy (protection),Phytophthora infestans,100%
same,log P,[1]; [4],2.75[a]
C#Cc1cnc2c(Cl)cc(C3=NOC(C)(C(=O)NCc4cn(CCC)nc4C)C3)cc2c1 (stereo not shown) [compound 551],% of efficacy (protection),Botrytis cinerea,98%
same,% of efficacy (protection),Phytophthora infestans,81%
same,log P,[1]; [3],2.78[a]
same,% of efficacy (protection),Septoria tritici,93%
C#Cc1cnc2ccc(C3=NOC(C)(C(=O)NCc4cn(C(C)C)nc4C)C3)cc2c1 (stereo not shown) [compound 461],% of efficacy (protection),Botrytis cinerea,99%
same,% of efficacy (protection),Sphaerotheca fuliginea,98%
same,% of efficacy (protection),Phytophthora infestans,100%
same,log P,[1]; [4],2.34[a]
C#Cc1cnc2ccc(C3=NOC(C)(C(=O)NCc4c(C)nn(C)c4C)C3)cc2c1 (stereo not shown) [compound 183],% of efficacy (protection),Phytophthora infestans,86%
same,log P,[1]; [6],1.91^[a]
same,% of efficacy (protection),Septoria tritici,86%
CCn1cc(C(C)NC(=O)C2(C)CC(c3ccc4ncc(Br)cc4c3)=NO2)c(C)n1 (stereo not shown) [compound 312],% of efficacy (protection),Sphaerotheca fuliginea,94%
same,% of efficacy (protection),Phytophthora infestans,100%
same,log P,[1]; [3],2.52[a]
same,% of efficacy (protection),Septoria tritici,100%
C#Cc1cnc2ccc(C3=NOC(C)(C(=O)NC(C)C4=NOCC4)C3)cc2c1 (stereo not shown) [compound 338],% of efficacy (protection),Sphaerotheca fuliginea,100%
same,% of efficacy (protection),Phytophthora infestans,92%
same,log P,[1]; [3],2.08[a]
same,% of efficacy (protection),Septoria tritici,100%
COC(=O)C1(C)CC(c2ccc3ncc(Br)c(Cl)c3c2)=NO1 (stereo not shown) [II-95],Log P,"[2]; Table 2, formula (II)",3.29[a]
CC(C)n1cc(CNC(=O)C2(C)CC(c3ccc4ncc(Br)cc4c3)=NO2)cn1 (stereo not shown) [compound 199],% of efficacy (protection),Botrytis cinerea,99%
same,% of efficacy (protection),Sphaerotheca fuliginea,98%
same,% of efficacy (protection),Phytophthora infestans,92%
same,log P,[1]; [6],2.5^[a]
CC1(C(=O)O)CC(c2ccc3nc(Cl)c(I)cc3c2)=NO1 (stereo not shown) [II-83],Log P,"[2]; Table 2, formula (II)",2.59[a]
COC(=O)C1(C)CC(c2ccc3nc(O)c(Br)cc3c2)=NO1 (stereo not shown) [II-45],Log P,"[2]; Table 2, formula (II)",1.74[a]
C=CC1(C(=O)NCCCOCC)CC(c2ccc3ncc(Br)cc3c2)=NO1 (stereo not shown) [compound 733],% of efficacy (protection),Sphaerotheca fuliginea,98%
same,% of efficacy (protection),Phytophthora infestans,100%
same,log P,[1]; [5],3.06[a]
same,% of efficacy (protection),Septoria tritici,92%
ON=Cc1cc(F)c2ncc(Br)cc2c1 [V-23],Log P,"[2]; Table 3, formula (V)",2.08[a]
ON=Cc1ccc2ncc(I)cc2c1 [V-07],Log P,"[2]; Table 3, formula (V)",1.98[a]
C#Cc1cnc2c(Cl)cc(C3=NOC(OC)(C(=O)O)C3)cc2c1 (stereo not shown) [II-90],Log P,"[2]; Table 2, formula (II)",1.95[a]
COC(=O)C1(C)CC(c2ccc3ncc(I)cc3c2)=NO1 (stereo not shown) [II-30],Log P,"[2]; Table 2, formula (II)",2.71[a]
CCn1cc(CNC(=O)C2(OC)CC(c3ccc4ncc(I)cc4c3)=NO2)c(C)n1 (racemic) [compound 437],% of efficacy (protection),Sphaerotheca fuliginea,100%
same,% of efficacy (protection),Phytophthora infestans,70%
same,log P,[1]; [4],2.44[a]
COC(=O)C1(C)CC(c2ccc3nc(C#N)c(I)cc3c2)=NO1 (stereo not shown) [II-68],Log P,"[2]; Table 2, formula (II)",3.02[a]
CC1(C(=O)O)CC(c2cc(Cl)c3ncc(Br)cc3c2)=NO1 (stereo not shown) [II-79],Log P,"[2]; Table 2, formula (II)",2.45[a]
ON=C(Cl)c1cc(Cl)c2ncc(Br)cc2c1 [V-18],Log P,"[2]; Table 3, formula (V)",3.10[a]
C#Cc1cnc2ccc(C3=NOC(C)(C(=O)NCc4c(C)nn(CC)c4C)C3)cc2c1 (stereo not shown) [compound 87],% of efficacy (protection),Botrytis cinerea,97%
same,% of efficacy (protection),Sphaerotheca fuliginea,89%
same,% of efficacy (protection),Phytophthora infestans,100%
same,log P,[1]; [6],2.08^[a]
CC1(C(=O)O)CC(c2ccc3nc(Cl)c(Br)cc3c2)=NO1 (stereo not shown) [II-43],Log P,"[2]; Table 2, formula (II)",2.57[a]
ON=C(Cl)c1ccc2ncc(Br)cc2c1 [V-10],Log P,"[2]; Table 3, formula (V)",2.52[a]
COC(=O)C1(C2CC2)CC(c2ccc3ncc(Br)cc3c2)=NO1 (racemic) [II-18],Log P,"[2]; Table 2, formula (II)",3.27[a]
ON=C(Cl)c1ccc2ncc(I)cc2c1 [V-14],Log P,"[2]; Table 3, formula (V)",2.77[a]
CCOC(=O)C1(C)CC(c2ccc3ncccc3c2)=NO1 (racemic) [II-20],Log P,"[2]; Table 2, formula (II)",1.6[a]
CC(O)C1(C(=O)O)CC(c2ccc3ncc(Br)cc3c2)=NO1 (mixture of isomers) [II-77],Log P,"[2]; Table 2, formula (II)",1.60 and 1.65
ON=C(Cl)c1ccc2ncc(Br)c(Cl)c2c1 [V-22],Log P,"[2]; Table 3, formula (V)",3.16[a]
COC(=O)CC1(C(=O)O)CC(c2ccc3ncc(Br)cc3c2)=NO1 (stereo not shown) [II-50],Log P,"[2]; Table 2, formula (II)",1.98[a]
CCOC(=O)C1(CF)CC(c2ccc3ncc(Br)cc3c2)=NO1 (stereo not shown) [II-62],Log P,"[2]; Table 2, formula (II)",3.13[a]
CCCn1cc(CNC(=O)C2(C)CC(c3cc(Cl)c4ncc(Br)cc4c3)=NO2)c(C)n1 (racemic) [compound 549],% of efficacy (protection),Botrytis cinerea,83%
same,% of efficacy (protection),Phytophthora infestans,96%
same,log P,[1]; [3],3.06[a]
same,% of efficacy (protection),Septoria tritici,97%
CC1(C(=O)NCc2cnn(Cc3ccccc3)c2)CC(c2ccc3ncc(Br)cc3c2)=NO1 (stereo not shown) [compound 201],% of efficacy (protection),Phytophthora infestans,92%
same,log P,[1]; [6],2.94^[a]
same,% of efficacy (protection),Septoria tritici,86%
C#Cc1cnc2ccc(C3=NOC(C)(C(=O)NC(C)(C)c4nc(C)cs4)C3)cc2c1 (stereo not shown) [compound 516],% of efficacy (protection),Botrytis cinerea,100%
same,% of efficacy (protection),Phytophthora infestans,73%
same,log P,[1]; [3],2.92[a]
CC1(C(=O)O)CC(c2ccc3nc(C#N)c(I)cc3c2)=NO1 (stereo not shown) [II-82],Log P,"[2]; Table 2, formula (II)",2.24[a]
Cc1cc(C2=NOC(C)(C(=O)O)C2)cc2cc(Br)cnc12 (stereo not shown) [II-85],Log P,"[2]; Table 2, formula (II)",2.64[a]
CCOC(=O)C1(OCC)CC(c2ccc3ncc(Br)cc3c2)=NO1 (stereo not shown) [II-57],Log P,"[2]; Table 2, formula (II)",2.53[a]
COc1nc2ccc(C3=NOC(C)(C(=O)O)C3)cc2cc1Br (stereo not shown) [II-38],Log P,"[2]; Table 2, formula (II)",2.64[a]
ON=Cc1ccc2ncc(I)cc2c1 [V-13],Log P,"[2]; Table 3, formula (V)",2.08[a]
CCn1nc(C)c(CNC(=O)C2(C)CC(c3ccc4ncc(Br)cc4c3)=NO2)c1C (stereo not shown) [compound 88],% of efficacy (protection),Phytophthora infestans,100%
same,log P,[1]; [6],2.32^[a]
COC(=O)C1(C)CC(c2cc3cc(Br)cnc3cc2F)=NO1 (stereo not shown) [II-34],Log P,"[2]; Table 2, formula (II)",2.94[a]
O=C(O)C1(CC2CC2)CC(c2ccc3ncc(Br)cc3c2)=NO1 (stereo not shown) [II-66],Log P,"[2]; Table 2, formula (II)",2.70[a]
O=C(O)C1(C2CC2)CC(c2ccc3ncc(Br)cc3c2)=NO1 (stereo not shown) [II-37],Log P,"[2]; Table 2, formula (II)",2.43[a]
C#Cc1cnc2c(C)cc(C3=NOC(OC)(C(=O)O)C3)cc2c1 (stereo not shown) [II-93],Log P,"[2]; Table 2, formula (II)",2.07[a]
CC#Cc1cnc2ccc(C3=NOC(C)(C(=O)NC(C)C)C3)cc2c1 (racemic) [compound 381],% of efficacy (protection),Sphaerotheca fuliginea,94%
same,% of efficacy (protection),Phytophthora infestans,95%
same,log P,[1]; [4],2.73[a]
same,% of efficacy (protection),Septoria tritici,97%
COC(=O)C1(C)CC(c2cc3cccnc3c(F)c2F)=NO1 (stereo not shown) [II-29],Log P,"[2]; Table 2, formula (II)",2.11[a]
CCOC(=O)C1(C[Si](C)(C)C)CC(c2ccc3ncc(Br)cc3c2)=NO1 (stereo not shown) [II-58],Log P,"[2]; Table 2, formula (II)",3.80[a]
CC1(C(=O)O)CC(c2ccc3ncc(Br)c(Cl)c3c2)=NO1 (stereo not shown) [II-96],Log P,"[2]; Table 2, formula (II)",2.34[a]
COc1c(C2=NOC(C)(C(=O)O)C2)cc2cccnc2c1F (racemic) [II-05],Log P,"[2]; Table 2, formula (II)",1.39[a]
ON=Cc1ccc2ncc(Br)c(Cl)c2c1 [V-21],Log P,"[2]; Table 3, formula (V)",2.43[a]
C#Cc1cnc2c(Cl)cc(C3=NOC(C)(C(=O)OC)C3)cc2c1 (stereo not shown) [II-75],Log P,"[2]; Table 2, formula (II)",2.92[a]
